The values below come from article PMC12037037 (Proceedings of the National Academy of Sciences of the …, 2025).

The target of assay [1] is wild type human 5-HT2A receptor (psychLight2, PSYLI2 cells) (Homo sapiens, UniProt P28223). The assay can be described thus: PsychLight assay, wild type. In kind it is cell-based.
Method: PsychLight Assays. Psychlight assays were performed using a previously published method (15) with slight modifications.
Briefly, a solution of PSYLI2 cells suspended in DMEM containing 10% FBS with 5% penicillin-streptomycin was added to
poly-D-lysine-coated glass bottom 96-well plates. The cells were plated at a density of 60,000 cells/well for the inner 60
wells and 90,000 cells/well for the outer 36 wells and incubated at 37°C with 5% CO2 for 18–24 h prior to each experiment.
On the day of each experiment, the DMEM solution was replaced with 100 µL/well Hoechst solution (2 µM in HBSS) and
incubated for 30 min at 37°C with 5% CO2. Plates were then washed 3x 200 µL HBSS and replaced with 160 µL/well of
assay buffer (HBSS with 0.5 mM HEPES buffer, adjusted to pH = 7.4 with 1 M NaOH) and incubated for 30 min (37°C, 5%
CO2). The cells were then imaged on a Thermo Scientific CellInsight CX7 LZR High Content Analysis Platform at 10X
(37°C, 5% CO2). Images from nine regions of interest (ROI) per well were obtained following the default ROI pattern with
no bias to location and no overlap of the ROIs. Baseline images were collected prior to drug addition. […]
activation was quantified using the built-in Target Validation Assay (version 6.0.1.4021) on the Thermo Scientific HCS Studio […]
objects (psychLight signal) were defined as signal within 12 pixels of the primary objects. PsychLight signal was calculated […]
The next assay concerns the target T1, human 5-HT2B receptor (Homo sapiens, UniProt P41595).
T1 construct: host or cells: CHO
The assay can be described thus: IP1 functional assay (5-HT2BR). In kind it is cell-based.

The subject of a further assay is male C57BL/6J mice. Put plainly: Head-twitch antagonism of an LSD dose response (Transpharmation). In kind it is in vivo. As to conditions: +JRT PreTx (1 mg/kg IP, 30 min prior) then VEH (1% DMSO); -JRT 0.7 ± 0.3.
The test system of assay [2] is female C57BL/6J mice, medial prefrontal cortex. The assay can be described thus: In vivo spinogenesis and synaptogenesis (S3EM, layer 1 mPFC). As to conditions: 24 h.
For assay [3], the target named is T2, U2OS cells expressing 5-HT2ARs (β-arrestin recruitment) (Homo sapiens, UniProt P28223).
T2 construct: host or cells: U2OS
The assay can be described thus: PathHunter β-arrestin agonist assay. In kind it is cell-based. As to conditions: free base.
Method: (D) The PathHunter® β-arrestin assay was used to
b-Arrestin Activation (PathHunter®). The 5-HT2AR PathHunter® b-arrestin agonist assay was performed at Eurofins
DiscoverX (Frement, CA, Catalog # 86-0001P-2090AG).
The PathHunter® β-arrestin assay monitors the activation of a GPCR in a homogenous, non-imaging assay format
using a technology developed by DiscoverX called Enzyme Fragment Complementation (EFC) with β-galactosidase (β-Gal)
as the functonal reporter.
PK and EA are then expressed as fusion proteins in U2OS cells,
with PK fused to the GPCR of interest, and EA fused to b-arrestin. When the target GPCR is activated and β-arrestin is

The test system of assay [4] is C57BL/6J mice. The assay can be described thus: Head-twitch response (HTR) assay. In kind it is in vivo. As to conditions: (+)-JRT 1 mg/kg IP pretreatment 15 min + LSD 0.2 mg/kg IP; mean ± SEM.
Method: Head-Twitch Response Assay. The HTR assay was performed using equal numbers of male and female C57BL/6J mice.
The mice were obtained from The Jackson Laboratory (Sacramento, CA) and were approximately 8 – 12 weeks old at the time of the experiments. After compound administration, animals were placed into an empty arena (40 cm x 40 cm) and filmed for 20 min. The arena was cleaned with 70% ethanol between trials.
The target of another assay is 5-HT7 (Homo sapiens, UniProt P34969). The assay can be described thus: Functional assay at 5-HT7 (Fig. S4). It is filed as cell-based. An excerpt: Figure S4. […] Radioligand binding (RLB) (top) and IP1 functional assays (bottom) for 5-HT1A (A), 5-HT5a (B), 5-HT6 (C), and 5-HT7 (D) receptors. Agonist or antagonist mode is indicated in the title of each graph. Data represent the mean ± SEM of 2 technical replicates.
5-carboxamidotryptamine; ND = not determined for incomplete curves.
(1 picture or pasted object on this page, not shown here)

Assay [5] concerns C57BL/6J mice. The assay can be described thus: Sucrose preference test (SPT) after chronic CORT. As to conditions: 1 mg/kg IP, two injections 48 h apart, CORT-sensitive mice; main effect of treatment P = 0.0364. In kind it is in vivo. How it is done: remained housed in groups of three for the remainder of the study. All rats were acclimated to the colony room for up to one week prior to dosing. During the period of acclimation, rats were examined and handled daily, and weighed to assure adequate health and suitability. The room temperature was maintained between 20 °C and 23 °C with a relative humidity of 30%–70%. Lab Rodent Diet 5001 (W.F. Fisher, Cat # 11015) and water were provided ad libitum. Animals were randomly assigned across treatment groups. All testing was performed during the light phase of the light/dark cycle. Behavioral testing was conducted according to established protocols approved by the IACUC committee and PGI Standard Operation Procedures (SOP). […] All animals were carefully monitored to ensure their safety in the swim test and any animal unable to maintain a posture with its nose above water was immediately removed from the water and not used further in the study. […] This test lasted for 5 min and was video recorded. A blinded experimenter manually scored the videos for swimming, climbing, and immobility behavior. Scoring of the forced swim test was performed by trained technicians using a time sampling technique in which the animal in the video recorded test was viewed every 5 seconds and the behavior observed was noted (e.g., immobile, swimming, or climbing). […]

For orientation: EC50 means the concentration needed to bring the measured effect to its halfway point. Read a low EC50 as a more potent agent. Usually Emax stands for the size of the effect at its maximum, as opposed to the concentration needed.

“Also recorded” adds a separate entry of the source.

T2 sequence (P28223 whole entry): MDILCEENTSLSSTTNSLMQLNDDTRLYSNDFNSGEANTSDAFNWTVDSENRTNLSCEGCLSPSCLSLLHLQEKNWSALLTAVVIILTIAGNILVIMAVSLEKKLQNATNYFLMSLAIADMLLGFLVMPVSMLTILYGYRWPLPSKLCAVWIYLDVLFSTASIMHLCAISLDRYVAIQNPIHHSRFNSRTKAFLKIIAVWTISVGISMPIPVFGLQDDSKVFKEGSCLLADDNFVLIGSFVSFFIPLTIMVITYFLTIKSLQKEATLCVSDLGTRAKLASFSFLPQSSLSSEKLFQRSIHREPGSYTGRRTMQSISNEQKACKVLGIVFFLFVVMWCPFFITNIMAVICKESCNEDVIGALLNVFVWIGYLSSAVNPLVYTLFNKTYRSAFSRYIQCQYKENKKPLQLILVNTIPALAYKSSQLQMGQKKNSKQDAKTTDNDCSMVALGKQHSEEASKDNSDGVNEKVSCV
Chain of wild type human 5-HT2A receptor (psychLight2, PSYLI2 cells) (P28223 with tags, fused parts or gaps): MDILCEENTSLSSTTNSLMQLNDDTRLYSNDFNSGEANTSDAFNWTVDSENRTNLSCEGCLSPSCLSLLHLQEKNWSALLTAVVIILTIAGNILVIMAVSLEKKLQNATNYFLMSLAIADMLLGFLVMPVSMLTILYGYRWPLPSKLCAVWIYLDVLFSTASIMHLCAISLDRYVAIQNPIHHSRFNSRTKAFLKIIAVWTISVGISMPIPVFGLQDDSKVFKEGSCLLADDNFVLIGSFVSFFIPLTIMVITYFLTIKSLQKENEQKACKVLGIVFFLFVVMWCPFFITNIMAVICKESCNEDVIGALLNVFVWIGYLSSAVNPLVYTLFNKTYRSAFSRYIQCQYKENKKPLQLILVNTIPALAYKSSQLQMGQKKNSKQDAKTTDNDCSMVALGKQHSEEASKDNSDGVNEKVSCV
Chain of wild type human 5-HT2A receptor (psychLight2, PSYLI2 cells) (P42212 with tags, fused parts or gaps partner): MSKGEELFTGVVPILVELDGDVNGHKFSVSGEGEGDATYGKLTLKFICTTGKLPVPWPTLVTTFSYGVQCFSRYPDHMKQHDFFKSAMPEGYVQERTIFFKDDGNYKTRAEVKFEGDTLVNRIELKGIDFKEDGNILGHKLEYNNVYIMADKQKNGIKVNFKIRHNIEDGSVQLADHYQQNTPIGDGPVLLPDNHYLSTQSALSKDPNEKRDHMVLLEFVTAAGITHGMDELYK
T1 sequence (P41595 whole entry): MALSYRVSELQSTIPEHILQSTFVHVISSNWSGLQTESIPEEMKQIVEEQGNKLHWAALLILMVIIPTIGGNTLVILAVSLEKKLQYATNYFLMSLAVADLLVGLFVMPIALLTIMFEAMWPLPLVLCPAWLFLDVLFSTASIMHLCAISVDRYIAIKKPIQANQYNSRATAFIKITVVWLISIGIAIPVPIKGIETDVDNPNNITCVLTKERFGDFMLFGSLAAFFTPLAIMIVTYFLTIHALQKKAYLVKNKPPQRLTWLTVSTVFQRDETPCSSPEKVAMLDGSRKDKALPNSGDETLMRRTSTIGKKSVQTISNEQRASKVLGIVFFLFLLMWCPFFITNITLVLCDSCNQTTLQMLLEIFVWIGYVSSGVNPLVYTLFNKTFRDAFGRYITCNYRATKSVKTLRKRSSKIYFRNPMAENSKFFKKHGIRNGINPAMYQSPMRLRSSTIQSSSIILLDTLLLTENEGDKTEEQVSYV
Chain of 5-HT7 (P34969 whole entry): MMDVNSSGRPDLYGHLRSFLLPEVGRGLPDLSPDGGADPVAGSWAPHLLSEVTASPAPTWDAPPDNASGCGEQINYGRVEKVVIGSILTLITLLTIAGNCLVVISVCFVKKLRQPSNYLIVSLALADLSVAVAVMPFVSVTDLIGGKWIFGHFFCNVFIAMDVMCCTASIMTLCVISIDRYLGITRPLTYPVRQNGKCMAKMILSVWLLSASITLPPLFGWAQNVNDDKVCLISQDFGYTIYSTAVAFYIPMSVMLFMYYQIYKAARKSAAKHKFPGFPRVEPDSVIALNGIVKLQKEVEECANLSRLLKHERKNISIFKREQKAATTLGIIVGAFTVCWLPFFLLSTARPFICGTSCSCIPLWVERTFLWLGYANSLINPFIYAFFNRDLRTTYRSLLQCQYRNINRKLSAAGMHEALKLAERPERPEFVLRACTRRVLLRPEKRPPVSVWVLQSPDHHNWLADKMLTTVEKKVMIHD
Method for human 5-HT2B receptor: IP1 Assay (5-HT2AR and 5-HT2CR). The 5-HT2AR and 5-HT2CR IPOne HTRF assays were performed at Epics
Therapeutics S.A. (Belgium, FAST-0505I) using conventional methods. Experiments were performed using the free bases
of (+)-JRT and (–)-JRT. Briefly, CHO-K1 cells expressing human recombinant 5-HT2AR grown to mid-log phase in culture
media without antibiotics were detached with PBS-EDTA, centrifuged, and resuspended in medium without antibiotics
buffer. Then, 20,000 cells were distributed in a 96-well plate and incubated overnight at 37 °C with 5% CO2. For agonist
were added to each well. The plate was incubated for 60 min at 37 °C with 5% CO2. After addition of the lysis buffer containing
IP1-d2 and anti-IP1 cryptate detection reagents, plates were incubated for 1 h at room temperature and fluorescence ratios
were measured according to the manufacturer’s specifications using the HTRF kit.
IP1 Assay (5-HT2BR). […]
Following incubation, the cells are lysed and the fluorescence acceptor (D2-
labeled IP1) and fluorescence donor (anti-IP1 antibody labeled with europium cryptate) were added. […]
temperature, the fluorescence transfer was measured at lex = 337 nm and lem = 620 and 665 nm using a microplate
reader (Envision, Perkin Elmer). The IP1 concentration was determined by dividing the signal measured at 665 nm by that
measured at 620 nm (ratio). […]

For the molecule `CCN(CC)C(=O)[C@@H]1C=C2c3cccc4ccn(c34)C[C@H]2N(C)C1` [(+)-JRT], in assay [1], a half-maximal response (EC50) required 90 nM. The values for the Emax (in assay [1] (read-out: psychLight (WT): EMax); on human 5-HT2B receptor) were 33% and 48%, respectively. For the same molecule, the “Head-twitch response over 20 min (Figure S9)” value with male C57BL/6J mice came out at 3.9 ± 0.567. Besides, the Synapse size entry in assay [2] (1 mg/kg IP) is “remained unchanged”. In addition, the “Increase in synapse density within the mPFC” value in assay [2] (single administration 1 mg/kg IP, S3EM) worked out at 18%. Moreover, the “Increase in dendritic spine density within the mPFC” value in assay [2] (single administration 1 mg/kg IP, layer 1, S3EM) is given as 46%. The “β-arrestin recruitment through 5-HT2A receptor activation” value in assay [3] is on record as “potent partial agonist; also recorded: not able to recruit β-arrestin through 5-HT2A receptor activation with high efficacy”. The “Head-twitches over 20 min (Figure 5A Antagonism)” value with C57BL/6J mice [4] was 1.500 ± 0.3450. Further, the “Functional activity at 5-HT7, agonist mode” value on 5-HT7 is given as “agonist or partial agonist”. For the same molecule, in the assay with C57BL/6J mice [5], the “Effect on CORT-induced anhedonia (sucrose preference)” value is on record as “rescued CORT-induced anhedonia”.
